Experimental data taken from ChEMBL document CHEMBL5653631, “A Potent and Selective ULK1 Inhibitor Suppresses Autophagy and Sensitizes Cancer Cells to Nutrient Stress” (iScience, 2018).

What was measured:
[1] = molecular target: Casein kinase I isoform gamma-1 (Homo sapiens) (UniProt Q9HCP0); test: Inhibition of human recombinant CK1g1 at 40 nM in presence of ATP by radiometric assay relative to control
[2] = molecular target: T1, Serine/threonine-protein kinase ICK (Homo sapiens) (UniProt Q9UPZ9); test: Inhibition of human recombinant ICK at 40 nM in presence of ATP by radiometric assay relative to control
T1 sequence (whole entry): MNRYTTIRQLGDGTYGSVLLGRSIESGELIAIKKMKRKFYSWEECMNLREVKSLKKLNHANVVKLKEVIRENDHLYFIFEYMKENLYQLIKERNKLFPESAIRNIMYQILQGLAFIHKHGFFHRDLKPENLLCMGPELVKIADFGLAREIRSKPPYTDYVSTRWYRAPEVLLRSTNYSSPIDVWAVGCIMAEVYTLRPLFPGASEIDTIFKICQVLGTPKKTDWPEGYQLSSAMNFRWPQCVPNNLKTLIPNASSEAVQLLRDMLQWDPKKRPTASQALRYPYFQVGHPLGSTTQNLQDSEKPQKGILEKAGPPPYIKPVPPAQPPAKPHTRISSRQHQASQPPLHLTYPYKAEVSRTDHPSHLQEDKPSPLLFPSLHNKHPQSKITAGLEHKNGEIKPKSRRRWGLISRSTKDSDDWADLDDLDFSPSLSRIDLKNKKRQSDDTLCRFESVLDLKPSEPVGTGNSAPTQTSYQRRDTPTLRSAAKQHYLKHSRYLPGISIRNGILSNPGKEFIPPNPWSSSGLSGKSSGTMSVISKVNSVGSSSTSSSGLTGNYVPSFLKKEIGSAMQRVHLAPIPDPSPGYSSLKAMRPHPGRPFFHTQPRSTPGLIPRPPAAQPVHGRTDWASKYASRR

[3] = molecular target: Serine/threonine-protein kinase PAK 1 (Homo sapiens) (UniProt Q13153); test: Inhibition of human recombinant PAK1 at 40 nM in presence of ATP by radiometric assay relative to control
Sequence of Serine/threonine-protein kinase PAK 1 (Homo sapiens) (Q13153 whole entry, looked up): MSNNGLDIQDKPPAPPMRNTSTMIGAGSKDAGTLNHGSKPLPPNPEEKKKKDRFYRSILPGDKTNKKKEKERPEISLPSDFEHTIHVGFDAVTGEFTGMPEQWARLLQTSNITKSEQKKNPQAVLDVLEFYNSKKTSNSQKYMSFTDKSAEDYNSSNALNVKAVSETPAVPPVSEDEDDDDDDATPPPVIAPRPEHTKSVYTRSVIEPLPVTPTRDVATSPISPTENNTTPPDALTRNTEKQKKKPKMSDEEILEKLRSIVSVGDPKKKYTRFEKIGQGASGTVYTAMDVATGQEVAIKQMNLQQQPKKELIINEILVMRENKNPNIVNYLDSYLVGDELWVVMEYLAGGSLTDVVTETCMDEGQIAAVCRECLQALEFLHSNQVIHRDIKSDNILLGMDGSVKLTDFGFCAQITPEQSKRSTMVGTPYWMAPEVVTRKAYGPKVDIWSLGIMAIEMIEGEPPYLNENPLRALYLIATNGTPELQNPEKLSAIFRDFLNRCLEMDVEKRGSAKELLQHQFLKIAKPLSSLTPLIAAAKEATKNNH

[4] = molecular target: Protein kinase C theta type (Homo sapiens) (UniProt Q04759); test: Inhibition of human recombinant PKCt at 40 nM in presence of ATP by radiometric assay relative to control
Sequence of Protein kinase C theta type (Homo sapiens) (Q04759 whole entry, looked up): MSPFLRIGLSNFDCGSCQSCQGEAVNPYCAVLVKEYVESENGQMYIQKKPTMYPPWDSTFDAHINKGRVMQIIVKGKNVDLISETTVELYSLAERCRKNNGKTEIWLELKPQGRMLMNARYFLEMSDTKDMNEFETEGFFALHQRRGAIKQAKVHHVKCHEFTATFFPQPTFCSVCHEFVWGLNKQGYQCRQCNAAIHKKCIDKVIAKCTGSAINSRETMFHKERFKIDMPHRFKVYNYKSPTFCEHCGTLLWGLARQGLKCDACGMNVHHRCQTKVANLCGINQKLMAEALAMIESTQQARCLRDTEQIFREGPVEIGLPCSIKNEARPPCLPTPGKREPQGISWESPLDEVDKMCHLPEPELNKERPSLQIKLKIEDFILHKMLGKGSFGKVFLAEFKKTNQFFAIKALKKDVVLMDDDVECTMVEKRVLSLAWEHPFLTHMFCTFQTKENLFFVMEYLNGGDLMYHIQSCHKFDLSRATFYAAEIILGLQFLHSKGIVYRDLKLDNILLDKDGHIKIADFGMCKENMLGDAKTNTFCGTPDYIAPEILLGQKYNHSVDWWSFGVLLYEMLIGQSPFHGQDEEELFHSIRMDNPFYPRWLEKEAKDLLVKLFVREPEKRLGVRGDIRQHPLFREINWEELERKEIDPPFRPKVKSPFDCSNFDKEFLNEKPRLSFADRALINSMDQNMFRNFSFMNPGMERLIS

[5] = molecular target: Fibroblast growth factor receptor 2 (Homo sapiens) (UniProt P21802); test: Inhibition of human recombinant FGFR2 at 500 nM in presence of ATP by radiometric assay relative to control
Sequence of Fibroblast growth factor receptor 2 (Homo sapiens) (P21802 22-821 limits assumed): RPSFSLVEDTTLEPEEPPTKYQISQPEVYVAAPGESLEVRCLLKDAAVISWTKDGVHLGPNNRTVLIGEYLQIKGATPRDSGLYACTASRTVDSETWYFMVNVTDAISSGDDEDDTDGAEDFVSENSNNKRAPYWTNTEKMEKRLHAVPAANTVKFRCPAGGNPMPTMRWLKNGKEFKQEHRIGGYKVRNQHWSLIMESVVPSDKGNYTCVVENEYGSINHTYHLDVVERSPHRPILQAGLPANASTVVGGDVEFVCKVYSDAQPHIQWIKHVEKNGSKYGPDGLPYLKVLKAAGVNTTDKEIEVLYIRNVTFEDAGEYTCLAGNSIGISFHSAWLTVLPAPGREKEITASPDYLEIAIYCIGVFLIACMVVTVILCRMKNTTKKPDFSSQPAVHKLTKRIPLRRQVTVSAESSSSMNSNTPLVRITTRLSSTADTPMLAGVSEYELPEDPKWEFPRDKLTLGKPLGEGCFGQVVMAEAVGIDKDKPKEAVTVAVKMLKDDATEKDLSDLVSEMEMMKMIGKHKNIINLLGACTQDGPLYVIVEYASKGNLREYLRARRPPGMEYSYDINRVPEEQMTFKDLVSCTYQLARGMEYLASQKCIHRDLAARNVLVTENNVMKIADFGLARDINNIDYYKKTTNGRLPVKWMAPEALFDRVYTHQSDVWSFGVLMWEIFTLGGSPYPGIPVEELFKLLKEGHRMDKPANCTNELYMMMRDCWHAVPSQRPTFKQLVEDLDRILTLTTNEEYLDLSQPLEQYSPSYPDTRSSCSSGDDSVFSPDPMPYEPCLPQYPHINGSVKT

[6] = molecular target: T2, Eukaryotic translation initiation factor 2-alpha kinase 3 (Homo sapiens) (UniProt Q9NZJ5); test: Inhibition of human recombinant PEK at 500 nM related to control ULK1
T2 sequence (whole entry): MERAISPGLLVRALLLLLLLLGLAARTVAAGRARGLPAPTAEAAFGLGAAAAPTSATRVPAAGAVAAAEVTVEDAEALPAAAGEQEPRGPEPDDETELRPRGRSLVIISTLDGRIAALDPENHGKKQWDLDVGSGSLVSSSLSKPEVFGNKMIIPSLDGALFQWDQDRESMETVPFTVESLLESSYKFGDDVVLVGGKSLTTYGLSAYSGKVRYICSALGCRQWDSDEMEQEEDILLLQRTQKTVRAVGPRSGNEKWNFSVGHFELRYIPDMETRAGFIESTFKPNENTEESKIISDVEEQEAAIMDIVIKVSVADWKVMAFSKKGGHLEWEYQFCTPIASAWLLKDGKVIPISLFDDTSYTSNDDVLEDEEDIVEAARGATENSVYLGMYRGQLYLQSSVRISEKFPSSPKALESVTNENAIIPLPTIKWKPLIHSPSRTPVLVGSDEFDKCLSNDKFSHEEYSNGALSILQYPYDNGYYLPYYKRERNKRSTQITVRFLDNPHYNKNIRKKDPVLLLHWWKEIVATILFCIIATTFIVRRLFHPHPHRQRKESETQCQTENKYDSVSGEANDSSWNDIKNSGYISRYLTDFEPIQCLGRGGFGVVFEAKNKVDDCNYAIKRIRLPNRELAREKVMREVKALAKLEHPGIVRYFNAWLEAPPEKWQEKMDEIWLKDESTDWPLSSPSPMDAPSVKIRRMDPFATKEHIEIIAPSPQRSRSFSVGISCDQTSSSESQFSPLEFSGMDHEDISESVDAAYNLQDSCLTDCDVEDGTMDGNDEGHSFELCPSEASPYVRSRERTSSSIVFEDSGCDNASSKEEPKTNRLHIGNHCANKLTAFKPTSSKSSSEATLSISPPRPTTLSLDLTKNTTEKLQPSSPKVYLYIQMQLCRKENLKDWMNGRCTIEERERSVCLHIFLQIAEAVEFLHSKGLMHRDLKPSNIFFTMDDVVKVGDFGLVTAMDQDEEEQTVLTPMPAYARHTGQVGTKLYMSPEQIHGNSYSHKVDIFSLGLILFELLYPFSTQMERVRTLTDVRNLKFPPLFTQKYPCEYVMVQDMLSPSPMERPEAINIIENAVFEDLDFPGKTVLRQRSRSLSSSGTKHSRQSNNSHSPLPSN

[7] = molecular target: Serine/threonine-protein kinase 26 (Homo sapiens) (UniProt Q9P289); test: Inhibition of human recombinant MST4 at 500 nM in presence of ATP by radiometric assay relative to control
Sequence of Serine/threonine-protein kinase 26 (Homo sapiens) (Q9P289 2-416 limits assumed): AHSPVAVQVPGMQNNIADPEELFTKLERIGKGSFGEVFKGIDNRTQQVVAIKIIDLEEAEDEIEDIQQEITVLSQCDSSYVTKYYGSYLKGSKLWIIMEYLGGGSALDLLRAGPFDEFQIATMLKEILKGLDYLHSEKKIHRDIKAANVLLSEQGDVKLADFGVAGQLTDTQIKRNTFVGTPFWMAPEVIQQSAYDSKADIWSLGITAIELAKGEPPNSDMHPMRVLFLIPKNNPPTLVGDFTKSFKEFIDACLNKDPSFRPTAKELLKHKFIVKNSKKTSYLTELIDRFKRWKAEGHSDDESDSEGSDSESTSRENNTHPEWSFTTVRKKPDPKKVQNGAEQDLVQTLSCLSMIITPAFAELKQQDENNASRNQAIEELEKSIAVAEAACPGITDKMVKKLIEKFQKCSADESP

[8] = molecular target: T3, Dual specificity tyrosine-phosphorylation-regulated kinase 2 (Homo sapiens) (UniProt Q92630); test: Inhibition of human recombinant DYRK2 at 500 nM in presence of ATP by radiometric assay relative to control
T3 sequence (whole entry): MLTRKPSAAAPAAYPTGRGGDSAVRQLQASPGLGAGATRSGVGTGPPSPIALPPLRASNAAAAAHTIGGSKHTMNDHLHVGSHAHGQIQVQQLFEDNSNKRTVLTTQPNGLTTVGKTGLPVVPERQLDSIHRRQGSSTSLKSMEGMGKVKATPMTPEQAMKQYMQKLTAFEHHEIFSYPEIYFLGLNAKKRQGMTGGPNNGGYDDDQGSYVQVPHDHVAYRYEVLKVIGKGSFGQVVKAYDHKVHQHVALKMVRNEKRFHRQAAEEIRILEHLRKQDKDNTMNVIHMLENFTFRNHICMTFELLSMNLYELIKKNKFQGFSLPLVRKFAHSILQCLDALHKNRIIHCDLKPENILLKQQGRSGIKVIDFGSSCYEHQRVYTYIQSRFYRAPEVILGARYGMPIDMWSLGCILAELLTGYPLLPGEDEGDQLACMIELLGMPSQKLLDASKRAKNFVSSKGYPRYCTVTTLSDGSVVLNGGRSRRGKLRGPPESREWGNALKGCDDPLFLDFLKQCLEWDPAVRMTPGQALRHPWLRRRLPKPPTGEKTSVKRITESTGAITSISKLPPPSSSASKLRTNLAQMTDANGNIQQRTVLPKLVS

[9] = molecular target: Receptor-type tyrosine-protein kinase FLT3 (Homo sapiens) (UniProt P36888); test: Inhibition of human recombinant FLT3 at 500 nM related to control ULK1
Sequence of Receptor-type tyrosine-protein kinase FLT3 (Homo sapiens) (P36888 whole entry): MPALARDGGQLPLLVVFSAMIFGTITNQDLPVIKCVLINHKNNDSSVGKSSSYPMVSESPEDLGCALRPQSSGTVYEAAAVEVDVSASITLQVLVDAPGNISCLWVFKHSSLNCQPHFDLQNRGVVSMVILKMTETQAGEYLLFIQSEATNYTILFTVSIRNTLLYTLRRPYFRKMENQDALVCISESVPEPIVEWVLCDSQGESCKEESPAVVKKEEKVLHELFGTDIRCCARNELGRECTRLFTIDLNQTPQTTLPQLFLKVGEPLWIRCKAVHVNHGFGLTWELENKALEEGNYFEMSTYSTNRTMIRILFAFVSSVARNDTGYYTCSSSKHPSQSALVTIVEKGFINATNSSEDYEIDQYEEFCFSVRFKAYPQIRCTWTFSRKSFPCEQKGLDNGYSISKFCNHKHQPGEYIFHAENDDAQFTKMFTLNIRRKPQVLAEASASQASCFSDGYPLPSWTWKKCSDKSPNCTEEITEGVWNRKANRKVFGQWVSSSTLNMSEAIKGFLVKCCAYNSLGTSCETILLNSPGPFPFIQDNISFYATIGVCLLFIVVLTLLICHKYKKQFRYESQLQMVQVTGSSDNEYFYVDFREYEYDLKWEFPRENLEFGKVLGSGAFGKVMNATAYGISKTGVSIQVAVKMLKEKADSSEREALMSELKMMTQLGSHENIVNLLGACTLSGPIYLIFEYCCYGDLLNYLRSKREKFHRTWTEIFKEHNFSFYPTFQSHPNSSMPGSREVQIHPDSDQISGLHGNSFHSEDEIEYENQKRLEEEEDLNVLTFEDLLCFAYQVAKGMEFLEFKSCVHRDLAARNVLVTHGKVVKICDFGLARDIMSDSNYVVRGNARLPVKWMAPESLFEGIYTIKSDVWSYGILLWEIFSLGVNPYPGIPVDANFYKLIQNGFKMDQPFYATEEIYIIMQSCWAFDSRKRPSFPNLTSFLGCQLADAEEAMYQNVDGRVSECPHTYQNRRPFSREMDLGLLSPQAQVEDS

[10] = molecular target: MAP kinase-activated protein kinase 3 (Homo sapiens) (UniProt Q16644); test: Inhibition of human recombinant MAPKAPK3 at 15 nM related to control ULK1
Sequence of MAP kinase-activated protein kinase 3 (Homo sapiens) (Q16644 whole entry, looked up): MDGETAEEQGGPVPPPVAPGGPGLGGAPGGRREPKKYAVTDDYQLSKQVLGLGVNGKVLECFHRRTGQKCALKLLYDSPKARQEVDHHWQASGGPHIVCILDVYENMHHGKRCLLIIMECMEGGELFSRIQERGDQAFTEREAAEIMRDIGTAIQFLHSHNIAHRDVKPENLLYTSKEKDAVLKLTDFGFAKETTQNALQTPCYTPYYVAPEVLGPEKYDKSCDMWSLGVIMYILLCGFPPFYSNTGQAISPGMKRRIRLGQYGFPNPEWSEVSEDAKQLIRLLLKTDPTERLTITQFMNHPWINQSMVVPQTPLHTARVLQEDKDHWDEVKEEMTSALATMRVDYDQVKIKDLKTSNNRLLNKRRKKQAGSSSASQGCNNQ

Sequence of Casein kinase I isoform gamma-1 (Homo sapiens) (Q9HCP0 whole entry, looked up, canonical isoform): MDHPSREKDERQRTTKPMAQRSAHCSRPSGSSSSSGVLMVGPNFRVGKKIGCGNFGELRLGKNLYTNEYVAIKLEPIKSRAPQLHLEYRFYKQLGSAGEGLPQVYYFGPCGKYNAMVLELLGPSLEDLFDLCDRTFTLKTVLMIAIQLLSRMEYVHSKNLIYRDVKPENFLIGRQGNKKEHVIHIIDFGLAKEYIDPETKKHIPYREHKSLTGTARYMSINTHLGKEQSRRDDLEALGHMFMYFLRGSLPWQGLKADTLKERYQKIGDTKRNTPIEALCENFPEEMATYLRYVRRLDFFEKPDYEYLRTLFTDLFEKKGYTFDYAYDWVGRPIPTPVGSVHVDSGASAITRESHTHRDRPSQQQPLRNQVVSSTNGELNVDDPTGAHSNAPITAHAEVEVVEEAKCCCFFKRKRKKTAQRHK

With `O=C(N[C@@H](C1CC1)C(F)(F)F)c1cc(-c2cnn3cc(-c4ccc(F)cc4)cnc23)cs1` the inhibition [1] was 0%, the inhibition [2] was 0% and the inhibition [3] was 0%. For the same compound, the inhibition [4] was 0%.

`CNC(=O)c1ccccc1Oc1nc(Nc2cc(OC)c(OC)c(OC)c2)ncc1Br` was tested, and the inhibition [5] was 21%, the fold change (FC) [6] was 0 and the inhibition [7] was 0%. The inhibition [8] was 0% and the fold change (FC) [9] was 0.77.

With `CC(C)[C@H](NC(=O)c1cc(-c2cnn3cc(-c4ccc(OCCN5CCCCC5)cc4)cnc23)cs1)C(F)(F)F` the fold change (FC) [10] was 0.
